For data set [1] the following is noted: 101 kPa, Liquid; for mass density: Vibrating tube method.
Data set [2] is described as follows: xn = mol fraction of the nth substance listed. Particulars: 101 kPa, Liquid, x1 = 1; for mass density: Vibrating tube method.

± gives the expanded uncertainty stated by the source.

The term speed of sound denotes the propagation velocity of pressure waves in the medium. In general, mass density refers to the mass of a sample divided by its volume.

Consider `Cc1ccccn1` [2-methylpyridine], for which the speed of sound in data set [1] (298.15 K) came out at 1380.1 ± 2 m/s; in data set [1] (303.15 K) it was 1361 ± 2 m/s; in data set [1] (308.15 K), 1339.9 ± 2 m/s. Also, the mass density in data set [1] (298.15 K) was 939.802 ± 0.99 kg/m3; in data set [1] (303.15 K), 935.117 ± 0.98 kg/m3; in data set [1] (308.15 K), 930.414 ± 0.98 kg/m3.

`Cc1cccnc1` [3-methylpyridine]: the speed of sound in data set [1] (298.15 K) turned out to be 1424 ± 2 m/s; in data set [1] (303.15 K) it was 1404 ± 2 m/s; in data set [1] (308.15 K), 1384 ± 2 m/s. In addition, the mass density in data set [1] (298.15 K) is on record as 952.002 ± 1 kg/m3; in data set [1] (303.15 K), 947.449 ± 1 kg/m3; in data set [1] (308.15 K) it was 942.831 ± 0.99 kg/m3.

As to `Cc1ccncc1` [4-methylpyridine], the speed of sound came to 1431.5 ± 1 m/s in data set [1] (298.15 K), 1410.7 ± 1 m/s in data set [1] (303.15 K) and 1389.9 ± 1 m/s in data set [1] (308.15 K). Besides, the mass density was 950.179 ± 0.3 kg/m3 in data set [1] (298.15 K), 945.413 ± 0.3 kg/m3 in data set [1] (303.15 K) and 940.821 ± 0.3 kg/m3 in data set [1] (308.15 K).

For the molecule `c1ccncc1` [pyridine], the figures for the speed of sound in data set [1] (298.15 K), in data set [1] (303.15 K) and in data set [1] (308.15 K) were 1417.6 ± 1.1 m/s, 1397.4 ± 1.1 m/s and 1377.1 ± 1.1 m/s, respectively. The mass density in data set [1] (298.15 K) was 978.249 ± 0.3 kg/m3; in data set [1] (303.15 K), 973.224 ± 0.3 kg/m3; in data set [1] (308.15 K) it was 968.166 ± 0.3 kg/m3.

`C1CCOCC1` [tetrahydropyran]: the speed of sound in data set [1] (298.15 K) is on record as 1269.9 ± 2 m/s; in data set [1] (303.15 K) it was 1246.8 ± 2 m/s; in data set [1] (308.15 K) it was 1224.5 ± 2 m/s. Besides, the mass density in data set [1] (298.15 K) is reported as 879.136 ± 0.91 kg/m3; in data set [1] (303.15 K), 873.992 ± 0.9 kg/m3; in data set [1] (308.15 K), 868.831 ± 0.89 kg/m3.

With `C1CCOCC1` [tetrahydropyran] + Cc1ccccn1, the results for the mass density in data set [2] (298.15 K), in data set [2] (303.15 K) and in data set [2] (308.15 K) were 879.136 ± 0.91 kg/m3, 873.992 ± 0.9 kg/m3 and 868.831 ± 0.89 kg/m3, respectively. For the same molecule, the speed of sound in data set [2] (298.15 K) came to 1269.9 ± 2 m/s; in data set [2] (303.15 K), 1246.8 ± 2 m/s; in data set [2] (308.15 K) it was 1224.5 ± 2 m/s.

Turning to `C1CCOCC1` [tetrahydropyran] + Cc1cccnc1, the results for the mass density in data set [2] (298.15 K), in data set [2] (303.15 K) and in data set [2] (308.15 K) were 879.136 ± 0.91 kg/m3, 873.992 ± 0.9 kg/m3 and 868.831 ± 0.89 kg/m3, respectively. Further, the speed of sound in data set [2] (298.15 K) came out at 1269.9 ± 2 m/s; in data set [2] (303.15 K), 1246.8 ± 2 m/s; in data set [2] (308.15 K), 1224.5 ± 2 m/s.

Take `C1CCOCC1` [tetrahydropyran] + Cc1ccncc1: the figures for the mass density in data set [2] (298.15 K), in data set [2] (303.15 K) and in data set [2] (308.15 K) were 879.136 ± 0.91 kg/m3, 873.992 ± 0.9 kg/m3 and 868.831 ± 0.89 kg/m3, respectively. Also, the speed of sound in data set [2] (298.15 K) was found to be 1269.9 ± 2 m/s; in data set [2] (303.15 K), 1246.8 ± 2 m/s; in data set [2] (308.15 K), 1224.5 ± 2 m/s.

With `C1CCOCC1` [tetrahydropyran] + c1ccncc1, the figures for the mass density in data set [2] (298.15 K), in data set [2] (303.15 K) and in data set [2] (308.15 K) were 879.136 ± 0.91 kg/m3, 873.992 ± 0.9 kg/m3 and 868.831 ± 0.89 kg/m3, respectively. Moreover, the speed of sound was 1269.9 ± 2 m/s in data set [2] (298.15 K), 1246.8 ± 2 m/s in data set [2] (303.15 K) and 1224.5 ± 2 m/s in data set [2] (308.15 K).

Source of the values: the NIST ThermoML archive (doi:10.1016/j.tca.2011.02.002).
